Experimental findings from US8722681B2, “N-sulfonyl thiazolylpiperazine derivatives and related N-sulfonyl heterocyclic derivatives for the treatment of neuro degenerative diseases” (NV reMYND, priority 2007, dated 2014) are described below.

This test relates to M17-SYNwt cells. Kind of test: α-synuclein cytotoxicity assay (LDH leakage from paraquat-treated M17-SYNwt cells). Format: cell-based, human. Particulars: for pEC50: Homo sapiens, M17-SYNwt cells, paraquat 32 mM, 40 hours, LDH activity; for % inh. (percentage inhibition) / % I (percentage inhibition): inhibition of synuclein toxicity at most effective concentration relative to untreated paraquat cells. The text has this: An α-synuclein expression plasmid was constructed by sub-cloning the NcoI/XhoI fragment from 212T-SYN(WT) (Griffioen et al., Biochem Biophys Acta (2006) 1762(3):312-318) containing the cDNA of human wild type α-synuclein correspondingly into a standard mammalian expression vector pcDNA3.1 resulting in plasmid pcDNA3.1-SYNwt. Plasmid pcDNA3.1 and pcDNA3.1-SYNwt were transfected to human neuroblastoma cells (ATCC No. CRL-2267) and independent clonal lines with the plasmids stably integrated into the genome were selected. […] Over-expression of α-synuclein in M17-SYNwt cell lines was confirmed by Western analysis.
Due to the high levels of α-synuclein M17-SYNwt cells are exquisitely sensitivity to paraquat, a well-known risk factor of synuclein-dependent neuronal degeneration. In degenerated or dead cells lactate dehydrogenase (LDH) is leaked out of the cells into the extracellular environment due to a loss of plasma-membrane integrity. This principle was used to determine cytotoxicity by quantifying the level of leaked LDH into the growth medium.
The detailed method for determining α-synuclein cytotoxicity was as follows: From appropriate precultures of M17 and M17-SYN cells were seeded at 50000 cells/cm^2 in Optimem Reduced Serum without phenol red (InVitrogen, Cat. 31985-047) supplemented with 5% fetal calf serum, 1 mM sodium pyruvate, 1×non-essential amino acids, 500 μg/ml G418 0.5×antibiotic/antimycotic. After 3 hours of incubation at 37° C./5% CO2 paraquat was added to the cells (final concentration of 32 mM), together with the test compound and the cells were further incubated for 40 hours. Subsequently, LDH activity was determined using Promega Cytotox 96 Non-Radioactive cytotoxicity assay, (Cat. G1780) according the supplier's instructions.
This α-synuclein expressing neuroblastoma cells made it possible to assess the ability of novel compounds to counteract α-synuclein cytotoxicity. […] Since this method monitors leaked LDH from degenerated or dead cells only non-toxic compounds will be identified as active inhibitors of α-synuclein-mediated cytotoxicity. Lack of toxicity is an important characteristic for compounds to be used as a medicament to patients in need. A compound was considered to be active in this test when it inhibits α-synuclein cytotoxicity by more than 25% relative to untreated M17-SYNwt cells at a concentration of 20 μg/mL or lower. In the experiments, the control group consisted of M17-SYNwt cells treated with DMSO, the untreated paraquat group consisted of M17-SYNwt cells treated with paraquat and DMSO, and the treated paraquat group consisted of M17-SYNwt cells treated with paraquat and the test compound dissolved in DMSO.
Percent inhibition was calculated as the synuclein toxicity inhibition by the compound in treated paraquat cells, relative to the synuclein cytotoxicity in untreated paraquat cells.
The compounds from table 1 were screened for activity using the α-synuclein cytotoxicity assay as described above. Dose responses were carried out on all compounds found to be active (10 point curves in duplicate).

Each structure is given as a SMILES string. pEC50: −log10 of the molar value.

With `COc1ccc(S(=O)(=O)N2CCN(Cc3nc(-c4ccc(F)cc4)cs3)CC2)cc1` [Compound 47, 1-((4-(4-fluorophenyl)thiazol-2-yl)methyl)-4-(4-methoxyphenylsulfonyl)piperazine], where the note is “Table 2”, the pEC50 was 7.40 and the “% inh. (percentage inhibition)” value is 86%.
Consider `O=S(=O)(c1ccc(Br)cc1)N1CCN(c2nc(-c3ccc(F)cc3)cs2)CC1` [Compound 7], for which, for the setting “Table 1”, the pEC50 was 6.49 and the “% I (percentage inhibition)” value was determined as 94%.
For the compound `COc1cccc(Cc2csc(N3CCN(S(=O)(=O)c4ccc(F)cc4)CC3)n2)c1` [Compound 30, 1-(4-(3-methoxybenzyl)thiazol-2-yl)-4-(4-fluorophenylsulfonyl)piperazine], under “Table 2”, the pEC50 was 6.39 and the “% inh. (percentage inhibition)” value came to 98%.
For `COc1cccc(Cc2csc(N3CCN(S(=O)(=O)c4ccccn4)CC3)n2)c1` [Compound 21, 1-(4-(3-methoxybenzyl)thiazol-2-yl)-4-(pyridin-2-ylsulfonyl)piperazine], in that order: 5.61 and 116%.
For `COc1ccc(-c2csc(N3CCN(S(=O)(=O)c4ccc(OC)c(OC)c4)CC3)n2)cc1` [Compound 38, 1-(3,4-dimethoxyphenylsulfonyl)-4-(4-(4-methoxyphenyl)thiazol-2-yl)piperazine], in that order: 5.97 and 65%.
For `COc1cccc(Cc2csc(N3CCN(S(=O)(=O)c4ccc(C)cc4)CC3)n2)c1` [Compound 28, 1-(4-(3-methoxybenzyl)thiazol-2-yl)-4-tosylpiperazine], in that order: 5.72 and 165%.
Turning to `COc1cccc(Cc2csc(N3CCN(S(=O)(=O)c4ccsc4)CC3)n2)c1` [Compound 22, 1-(4-(3-methoxybenzyl)thiazol-2-yl)-4-(thiophen-3-ylsulfonyl)piperazine], for the setting “Table 2”, the pEC50 is 6.00 and the “% inh. (percentage inhibition)” value came out at 89%.
For `O=S(=O)(c1cccc2nonc12)N1CCN(c2nc(-c3ccc(F)cc3)cs2)CC1` [Compound 74, 4-(4-(4-(4-fluorophenyl)thiazol-2-yl)piperazin-1-ylsulfonyl)benzo[c][1,2,5]oxadiazole], under “Table 2”, the pEC50 was 6.63 and the “% inh. (percentage inhibition)” value is listed as 41%.
For `O=[N+]([O-])c1ccc(-c2csc(N3CCN(S(=O)(=O)c4ccc5c(c4)OCCO5)CC3)n2)cc1` [Compound 71, 1-(2,3-dihydrobenzo[b][1,4]dioxin-6-ylsulfonyl)-4-(4-(4-nitrophenyl)thiazol-2-yl)piperazine], in that order: 5.84 and 77%.
For `Cc1n[nH]c(C)c1S(=O)(=O)N1CCN(c2nc(-c3ccc(F)cc3)cs2)CC1` [Compound 55, 1-(4-(4-fluorophenyl)thiazol-2-yl)-4-(3,5-dimethyl-1H-pyrazol-4-ylsulfonyl)piperazine], in that order: 6.18 and 91%.
The like results for `COc1ccc(S(=O)(=O)N2CCC(c3nc(-c4ccc(F)cc4)cs3)CC2)cc1` [Compound 48, 4-(4-(4-fluorophenyl)thiazol-2-yl)-1-(4-methoxyphenylsulfonyl)piperidine] were, in that order, 7.31 and 90%.
Take `COc1ccc(S(=O)(=O)N2CCC(c3nc(Cc4cccc(OC)c4)cs3)CC2)cc1` [Compound 31, 4-(4-(3-methoxybenzyl)thiazol-2-yl)-1-(4-methoxyphenylsulfonyl)piperidine]: for the setting “Table 2”, the pEC50 is 8.18 and the “% inh. (percentage inhibition)” value is given as 66%.
In the case of `O=S(=O)(c1cccnc1)N1CCN(c2nc(-c3ccc(F)cc3)cs2)CC1` [Compound 54, 1-(4-(4-fluorophenyl)thiazol-2-yl)-4-(pyridin-3-ylsulfonyl)piperazine], where the note is “Table 2”, the negative-log EC50 (pEC50) was 5.91 and the “% inh. (percentage inhibition)” value is reported as 91%.
As for `O=S(=O)(c1ccc(Cl)s1)N1CCN(c2nc(-c3ccccc3)cs2)CC1` [Compound 56, 1-(5-chlorothiophen-2-ylsulfonyl)-4-(4-phenylthiazol-2-yl)piperazine], where the note is “Table 2”, the negative logarithm of the EC50 (pEC50) is 6.12 and the “% inh. (percentage inhibition)” value was determined as 98%.
On to `COc1ccccc1-c1csc(N2CCN(S(=O)(=O)c3cccc4c3ccn4C)CC2)n1` [Compound 77, 4-(4-(4-(2-methoxyphenyl)thiazol-2-yl)piperazin-1-ylsulfonyl)-1-methyl-1H-indole], for which, for the setting “Table 2”, the pEC50 was 6.59 and the “% inh. (percentage inhibition)” value stood at 69%.
For the compound `COc1cccc(Cc2csc(N3CCN(S(=O)(=O)c4c(C)n[nH]c4C)CC3)n2)c1` [Compound 23, 1-(4-(3-methoxybenzyl)thiazol-2-yl)-4-(3,5-dimethyl-1H-pyrazol-4-ylsulfonyl)piperazine], for the setting “Table 2”, the pEC50 was 5.89 and the “% inh. (percentage inhibition)” value is given as 95%.
Regarding `COc1ccc(-c2csc(N3CCN(S(=O)(=O)c4cccs4)CC3)n2)cc1` [Compound 57, 1-(thiophen-2-ylsulfonyl)-4-(4-(4-methoxyphenyl)thiazol-2-yl)piperazine], for the setting “Table 2”, the pEC50 is 6.14 and the “% inh. (percentage inhibition)” value is 88%.
The like results for `Cc1ccc(S(=O)(=O)N2CCN(c3nc(-c4ccccc4)cs3)CC2)cc1` [Compound 44, 1-(4-phenylthiazol-2-yl)-4-tosylpiperazine] were, in that order, 6.71 and 72%.
The like results for `O=[N+]([O-])c1ccc(-c2csc(N3CCN(S(=O)(=O)c4cccs4)CC3)n2)cc1` [Compound 60, 1-(thiophen-2-ylsulfonyl)-4-(4-(4-nitrophenyl)thiazol-2-yl)piperazine] were, in that order, 5.91 and 79%.
For `O=S(=O)(c1ccc2c(c1)OCCO2)N1CCN(c2nc(-c3ccccc3)cs2)CC1` [Compound 69, 1-(2,3-dihydrobenzo[b][1,4]dioxin-6-ylsulfonyl)-4-(4-phenylthiazol-2-yl)piperazine], in that order: 6.36 and 89%.
As for `CCCc1sc(N2CCN(S(=O)(=O)c3ccc(C)cc3)CC2)nc1-c1ccccc1` [Compound 4], where the note is “Table 1”, the negative logarithm of the EC50 (pEC50) is 6.69 and the “% I (percentage inhibition)” value was determined as 61%.
As for `COc1cccc(-c2csc(N3CCN(S(=O)(=O)c4ccc(F)cc4)CC3)n2)c1` [Compound 5], under “Table 1”, the pEC50 was 6.67 and the “% I (percentage inhibition)” value was 90%.
`COc1ccc(F)cc1S(=O)(=O)N1CCN(c2nc(-c3ccc(C)cc3)cs2)CC1` [Compound 50, 1-(5-fluoro-2-methoxyphenylsulfonyl)-4-(4-(4-methylphenyl)thiazol-2-yl)piperazine]: where the note is “Table 2”, the pEC50 is 5.75 and the “% inh. (percentage inhibition)” value came out at 104%.
The like results for `COc1ccc(-c2csc(N3CCN(S(=O)(=O)c4ccc5c(c4)OCCO5)CC3)n2)cc1` [Compound 70, 1-(2,3-dihydrobenzo[b][1,4]dioxin-6-ylsulfonyl)-4-(4-(4-methoxyphenyl)thiazol-2-yl)piperazine] were, in that order, 5.71 and 83%.
The like results for `COc1cccc(Cc2csc(N3CCN(S(=O)(=O)c4cccnc4)CC3)n2)c1` [Compound 20, 1-(4-(3-methoxybenzyl)thiazol-2-yl)-4-(pyridin-3-ylsulfonyl)piperazine] were, in that order, 5.76 and 76%.

In general, pEC50 refers to the EC50 on a negative log10 scale, so that one unit is a factor of ten. A higher pEC50 goes with a small EC50.
